Among the data in PubChem BioAssay (NCI) are TGI and GI50 values, retold here.

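Where inhibition never reached the appropriate level, the endpoint shown equals the highest concentration tested. Otherwise, values were interpolated linearly from a five-concentration, 48-hour dose response in 96-well plates. The concentration for 50% growth inhibition is given as GI50. Definition used: TGI = concentration required for complete inhibition of growth.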 Bounds are passed on as bounds.

Broadly, the TGI is the concentration at which net growth stops. A low value points to greater sensitivity of the cells. As a reminder, the GI50 is the concentration at which growth is held to half of that of the control.

Holding throughout (assay): DTP human tumour cell line panel, 48 h
For experiment [1], the system named is HOP-62 NSCLC.
Experiment [2] relates to HCT-15 colon.
The subject of experiment [3] is SF-268 CNS.
Experiment [4] has as its system RPMI-8226 leukemia.
For experiment [5], the system named is UACC-257 melanoma.
The subject of experiment [6] is NCI-H522 lung.
Experiment [7] relates to HCC-2998 colon.
Experiment [8] deals with NCI-H23 lung.
Experiment [9] deals with MCF7 breast.
Experiment [10] concerns MDA-N.

With `Cc1cc2n([O-])cccc-2[n+](=O)c1`, the TGI in [1], in experiment [2], in experiment [3], in experiment [4], in [5] and in [6] was above 100 µM throughout. The TGI in experiment [7] and in experiment [8] was above 100 µM throughout.
For the compound `COC(=O)CC(NC(=O)OCc1ccccc1)C(C(=O)OCc1ccccc1)C1(C)OCCO1` (configuration not stated), the total growth inhibition concentration (TGI) in experiment [1] was above 100 µM; in experiment [2], above 100 µM; in experiment [3] it was above 100 µM; in experiment [4] it was 73.7 µM; in experiment [5] it was above 100 µM; in experiment [7], above 100 µM. For the same compound, in experiment [8], the TGI is above 100 µM.
As for `CC1(C)COC(c2c(-c3ccccc3)noc2CS(=O)c2ccccc2)=N1` (configuration not stated), the TGI in [1], in experiment [2], in [3], in experiment [4], in experiment [5] and in experiment [6] was above 100 µM in each case. In addition, the TGI in experiment [7] and in experiment [8] was above 100 µM throughout.
With `OC12CCCCCC1(N1CCOCC1)c1ccccc12` (configuration not stated), the TGI in [1], in experiment [2], in experiment [3], in [4], in experiment [5] and in [6] was above 100 µM throughout. The TGI in experiment [7] and in [8] was above 100 µM each time.
For `Oc1[nH]c2ccccc2c1/C=c1/cc2c(c(-c3ccc(C(F)(F)F)cc3)n1)=Nc1ccccc1-2`, the GI50 in experiment [1] was 12.3 µM; in experiment [2] it was 3.59 µM; in experiment [3], 10.3 µM; in [4] it was 2.93 µM; in experiment [5] it was 13.6 µM; in experiment [6] it was 1.67 µM. The GI50 is 9.32 µM in experiment [7], 10.9 µM in experiment [8] and 1.53 µM in [9]. Moreover, the TGI was determined as 27.3 µM in experiment [1]; 15.8 µM in [2]; 38.8 µM in [3]; 13.7 µM in experiment [4]; 42.3 µM in [5]; 14.3 µM in experiment [6]. Moreover, the TGI in experiment [7] came out at 24.4 µM; in experiment [8] it was 31.8 µM; in experiment [9] it was 5.14 µM.
On to `COc1cccc(CN(C(=O)/C=C\Sc2ccccc2)C(C)(C)C)c1`, for which the TGI in [1], in experiment [2], in experiment [10], in experiment [5], in experiment [7] and in [8] was above 100 µM throughout. For the same compound, the TGI in experiment [9] was above 100 µM.
Consider `CC(C)CCCC(C)[C@H]1CC[C@H]2N=C(Nc3ccccc3)CCC[C@]12C` (some centres not stated), for which the TGI in [1] is 6.12 µM; in experiment [2], 4.68 µM; in [3] it was 7.17 µM; in experiment [4], 4.8 µM; in experiment [10], 10.9 µM; in experiment [5], 4.85 µM. Besides, the figures for the TGI in experiment [8] and in [9] were 4.25 µM and 3.57 µM, respectively.
Turning to `CO[P@]1(=O)O[C@@H](c2ccccc2)[C@H](O)[C@@]1(O)c1ccccc1`, the total growth inhibition concentration (TGI) in experiment [2], in experiment [10], in experiment [5], in experiment [6], in experiment [8] and in experiment [9] was above 100 µM throughout.
As for `CC(c1ccccc1)N1CC(C)(c2ccccc2)N(O)C(c2ccccc2)C1C` (configuration not stated), the concentration for total growth inhibition (TGI) in [1] was 38.9 µM; in [3], 31.3 µM; in experiment [4] it was 62.8 µM; in [5] it was 45.1 µM; in [6], 32.3 µM; in [7] it was 36.9 µM. The compound further registered a TGI in [8] of 56.8 µM.
Take `O=c1c2c(nc3n1CCC3)sc1c(O)c(Br)ccc12`: the TGI in experiment [1] is 45.3 µM; in [2], 45.7 µM; in experiment [3], above 100 µM; in experiment [4] it was 53.6 µM; in experiment [5], 30.7 µM; in [6] it was 37.9 µM. The TGI was 38 µM in [7] and 92.7 µM in experiment [8].
For `Cc1c2cccc-2ccc2c1[nH]c1ccccc12`, the TGI is 12.9 µM in experiment [1]; 9.01 µM in experiment [2]; 4 µM in [3]; 8.28 µM in experiment [4]; 4.15 µM in [10]; 3.12 µM in [5]. The TGI amounted to 3.9 µM in [6], 8.99 µM in experiment [8] and 12.9 µM in [9].
Take `Cc1cc2occ(-c3ccc(Cl)cc3)c2c(=O)o1`: the TGI in experiment [1], in experiment [2], in [3], in [4], in [5] and in experiment [6] was above 100 µM in each case. For the same compound, the TGI in experiment [8] is above 100 µM.
Regarding `Cc1cc(=O)[nH]c(NNC(C#N)c2ccc([N+](=O)[O-])cc2)n1` (configuration not stated), the TGI in [1], in [2], in experiment [3], in experiment [4], in experiment [5] and in experiment [6] was above 100 µM each time. The compound further showed a TGI in [8] above 100 µM.
Turning to `Cc1cc([N+](=O)[O-])c(S(=O)(=O)c2ccccc2)c([N+](=O)[O-])c1`, the TGI in [1] stood at 40 µM; in experiment [2], 35.3 µM; in experiment [3] it was 50.4 µM; in [4], 45.9 µM; in experiment [5], 5.16 µM; in [6], 3.14 µM. Also, the TGI in experiment [7] was found to be 35.7 µM; in [8] it was 26.2 µM.
For the compound `CCN(CC)CCCCC1CCN(CC(=O)N2c3ccccc3NC(=O)CC2C)CC1` (configuration not stated), the TGI in experiment [1], in experiment [2], in experiment [3], in experiment [4], in experiment [5] and in [6] was above 100 µM in each case. The TGI in experiment [7] and in experiment [8] was above 100 µM each time.
Regarding `COC1=CC(=O)C2=C(C1=O)[C@H]1CC[C@]3(C)[C@@H](OC(C)=O)CC[C@H]3[C@@H]1CC2`, the total growth inhibition concentration (TGI) in [1], in [2], in [3], in experiment [4], in experiment [10] and in experiment [5] was above 100 µM in each case. In addition, the TGI in experiment [6] and in experiment [8] was above 100 µM in each case.
